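Values below derive from 48-hour exposures of cells grown in 96-well plates, with endpoints linearly interpolated between the two concentrations bracketing the appropriate inhibition level. GI50: concentration for 50% inhibition of growth.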 Calls of active or inactive are those of the source. Rule as the data show it: active = GI50 up to about 1.1 µM and inactive = higher.
What was measured:
Assay in all cases: NCI anticancer screen, dose series, 48 h
786-0 = test system: 786-0
A498 = test system: A498
A549 = test system: A549
ACHN = test system: ACHN
CAKI-1 = test system: CAKI-1
CCRF-CEM = test system: CCRF-CEM
COLO 205 = test system: COLO 205
DLD-1 = test system: DLD-1
DMS-114 = test system: DMS-114
DMS-273 = test system: DMS-273
EKVX = test system: EKVX
HCC 2998 = test system: HCC 2998
HCT-116 = test system: HCT-116
HCT-15 = test system: HCT-15
HL-60 = test system: HL-60
HOP-62 = test system: HOP-62
HOP-92 = test system: HOP-92
HT-29 = test system: HT-29
IGROV-1 = test system: IGROV-1
K562 = test system: K562
KM-20L2 = test system: KM-20L2
KM12 = test system: KM12
LOX IMVI = test system: LOX IMVI
LXFL 529 = test system: LXFL 529
M14 = test system: M14
M19-MEL = test system: M19-MEL
MOLT-4 = test system: MOLT-4
Malme-3M = test system: Malme-3M
NCI-H226 = test system: NCI-H226
NCI-H23 = test system: NCI-H23
NCI-H460 = test system: NCI-H460
NCI-H522 = test system: NCI-H522
OVCAR-3 = test system: OVCAR-3
OVCAR-4 = test system: OVCAR-4
OVCAR-5 = test system: OVCAR-5
OVCAR-8 = test system: OVCAR-8
RPMI-8226 = test system: RPMI-8226
RXF 393 = test system: RXF 393
RXF 631 = test system: RXF 631
SF-268 = test system: SF-268
SF-295 = test system: SF-295
SF-539 = test system: SF-539
SK-MEL-28 = test system: SK-MEL-28
SK-MEL-2 = test system: SK-MEL-2
SK-MEL-5 = test system: SK-MEL-5
SN12C = test system: SN12C
SNB-19 = test system: SNB-19
SNB-75 = test system: SNB-75
SNB-78 = test system: SNB-78
SR = test system: SR
SW-620 = test system: SW-620
TK-10 = test system: TK-10
U-251 = test system: U-251
UACC-257 = test system: UACC-257
UACC-62 = test system: UACC-62
UO-31 = test system: UO-31
XF498 = test system: XF498

## Cc1cc(C)cc(NC(N)=S)c1
786-0
  GI50: 92.5 µM (inactive)
A498
  GI50: > 100 µM (inactive)
A549
  GI50: > 100 µM (inactive)
ACHN
  GI50: > 100 µM (inactive)
CAKI-1
  GI50: > 100 µM (inactive)
CCRF-CEM
  GI50: 19.1 µM (inactive)
COLO 205
  GI50: 26.7 µM (inactive)
DLD-1
  GI50: > 100 µM (inactive)
DMS-114
  GI50: 45.3 µM (inactive)
DMS-273
  GI50: > 100 µM (inactive)
EKVX
  GI50: > 100 µM (inactive)
HCC 2998
  GI50: > 100 µM (inactive)
HCT-116
  GI50: 35.5 µM (inactive)
HCT-15
  GI50: 17.9 µM
HL-60
  GI50: 30.8 µM (inactive)
HOP-62
  GI50: > 100 µM (inactive)
HOP-92
  GI50: > 100 µM (inactive)
HT-29
  GI50: 40.9 µM (inactive)
IGROV-1
  GI50: > 100 µM (inactive)
K562
  GI50: > 100 µM (inactive)
KM-20L2
  GI50: > 100 µM (inactive)
KM12
  GI50: > 100 µM (inactive)
LOX IMVI
  GI50: 29.1 µM (inactive)
LXFL 529
  GI50: > 100 µM (inactive)
M14
  GI50: > 100 µM (inactive)
M19-MEL
  GI50: > 100 µM (inactive)
MOLT-4
  GI50: > 100 µM (inactive)
Malme-3M
  GI50: > 100 µM (inactive)
NCI-H226
  GI50: > 100 µM (inactive)
NCI-H23
  GI50: > 100 µM (inactive)
NCI-H460
  GI50: > 100 µM (inactive)
NCI-H522
  GI50: > 100 µM (inactive)
OVCAR-3
  GI50: > 100 µM (inactive)
OVCAR-4
  GI50: > 100 µM (inactive)
OVCAR-5
  GI50: > 100 µM (inactive)
OVCAR-8
  GI50: > 100 µM (inactive)
RPMI-8226
  GI50: 31.1 µM (inactive)
RXF 393
  GI50: 20.2 µM (inactive)
RXF 631
  GI50: > 100 µM (inactive)
SF-268
  GI50: 53.7 µM (inactive)
SF-295
  GI50: > 100 µM (inactive)
SF-539
  GI50: > 100 µM (inactive)
SK-MEL-28
  GI50: > 100 µM (inactive)
SK-MEL-2
  GI50: > 100 µM (inactive)
SK-MEL-5
  GI50: > 100 µM (inactive)
SN12C
  GI50: > 100 µM (inactive)
SNB-19
  GI50: > 100 µM (inactive)
SNB-75
  GI50: > 100 µM (inactive)
SNB-78
  GI50: > 100 µM (inactive)
SR
  GI50: 33.5 µM (inactive)
SW-620
  GI50: 4.06 µM (inactive)
TK-10
  GI50: > 100 µM (inactive)
U-251
  GI50: 38.6 µM (inactive)
UACC-257
  GI50: 36.4 µM (inactive)
UACC-62
  GI50: > 100 µM (inactive)
UO-31
  GI50: > 100 µM (inactive)
XF498
  GI50: 46.5 µM (inactive)

From ChEMBL document CHEMBL1201862, “PubChem BioAssay data set” (2004)
